Measurements: US20260103455A1, “ULK3 INHIBITORS AND USES THEREOF” (H. LEE MOFFITT CANCER CENTER AND RESEARCH INSTITUTE, INC., priority 2022, published 2026)
“And” between values parts separate entries of the source, which are not always exact repeats. Equal values may be shown once. Where a name gives a salt, the structure may show the parent alone.

Legend:
ULK3 = target: T1, ULK3 (Homo sapiens, UniProt Q6PHR2); test: DSF (ULK3) thermal shift; type: binding
T1 sequence (Q6PHR2 1-472): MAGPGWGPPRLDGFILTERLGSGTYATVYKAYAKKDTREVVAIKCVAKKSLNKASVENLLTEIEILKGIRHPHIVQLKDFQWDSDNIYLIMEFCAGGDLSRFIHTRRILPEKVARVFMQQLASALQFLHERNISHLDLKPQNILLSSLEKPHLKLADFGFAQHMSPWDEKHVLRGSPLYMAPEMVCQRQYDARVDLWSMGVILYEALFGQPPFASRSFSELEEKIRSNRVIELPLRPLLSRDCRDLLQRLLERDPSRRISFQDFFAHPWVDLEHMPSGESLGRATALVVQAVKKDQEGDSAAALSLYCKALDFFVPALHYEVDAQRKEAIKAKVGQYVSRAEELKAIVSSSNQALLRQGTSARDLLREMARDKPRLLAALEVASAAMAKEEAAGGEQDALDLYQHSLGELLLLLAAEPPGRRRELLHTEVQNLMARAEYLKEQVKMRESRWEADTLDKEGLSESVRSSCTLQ

JAK2 [1] = target: T2, JAK2 (Homo sapiens, UniProt O60674); test: IC50 for JAK2, Reaction Biology kinase assay (32P Hotspot assay); type: biochemical
JAK2 [2] = target: T2, JAK2; test: DSF (JAK2) thermal shift; type: binding

T2 sequence (O60674 whole entry): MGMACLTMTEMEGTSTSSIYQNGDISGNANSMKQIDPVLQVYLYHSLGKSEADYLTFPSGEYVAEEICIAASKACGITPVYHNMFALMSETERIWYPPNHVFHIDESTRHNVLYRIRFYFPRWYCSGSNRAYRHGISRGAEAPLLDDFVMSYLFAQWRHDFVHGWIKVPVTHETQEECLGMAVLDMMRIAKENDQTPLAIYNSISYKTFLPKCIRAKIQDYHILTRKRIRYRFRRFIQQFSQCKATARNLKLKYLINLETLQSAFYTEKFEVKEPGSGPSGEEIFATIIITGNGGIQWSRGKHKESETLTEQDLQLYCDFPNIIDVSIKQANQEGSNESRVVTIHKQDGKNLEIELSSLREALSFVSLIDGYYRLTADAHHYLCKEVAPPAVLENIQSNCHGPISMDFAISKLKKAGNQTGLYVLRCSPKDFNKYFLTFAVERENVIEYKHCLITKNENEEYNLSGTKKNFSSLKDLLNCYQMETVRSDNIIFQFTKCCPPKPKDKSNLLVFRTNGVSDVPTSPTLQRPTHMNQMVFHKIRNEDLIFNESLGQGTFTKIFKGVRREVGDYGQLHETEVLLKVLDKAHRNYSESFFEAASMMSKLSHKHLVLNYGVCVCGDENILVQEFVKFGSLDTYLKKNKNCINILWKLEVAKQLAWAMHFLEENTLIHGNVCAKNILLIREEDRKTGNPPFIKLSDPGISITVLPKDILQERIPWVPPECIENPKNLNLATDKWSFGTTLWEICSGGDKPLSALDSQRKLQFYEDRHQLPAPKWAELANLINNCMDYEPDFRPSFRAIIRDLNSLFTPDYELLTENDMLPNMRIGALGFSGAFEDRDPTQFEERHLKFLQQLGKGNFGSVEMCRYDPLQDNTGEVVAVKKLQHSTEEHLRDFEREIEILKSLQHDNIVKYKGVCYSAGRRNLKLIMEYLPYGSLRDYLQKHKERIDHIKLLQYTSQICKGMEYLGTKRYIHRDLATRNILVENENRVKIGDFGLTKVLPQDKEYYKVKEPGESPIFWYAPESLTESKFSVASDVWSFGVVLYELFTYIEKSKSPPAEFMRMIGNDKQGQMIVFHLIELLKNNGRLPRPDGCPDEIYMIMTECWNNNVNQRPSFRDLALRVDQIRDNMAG

Compound	DSF (ULK3) ΔTm (° C.) (ULK3)	IC50 (JAK2 [1])	DSF (JAK2) ΔTm (° C.) (JAK2 [2])
O=C(NCC(F)(F)F)c1ccc(-c2ccnc(Nc3cccc(N4CCOCC4)c3)n2)cc1 [BR1-045, 4-(2-((3-Morpholinophenyl)amino)pyrimidin-4-yl)-N-(2,2,2-trifluoroethyl)benzamide]	14.7 °C	–	–
COC[C@@H](NC(=O)c1ccc(-c2ccnc(Nc3ccc(N4CCOCC4)cc3)n2)cc1)c1ccccc1 [BR1-036, (S)—N-(2-Methoxy-1-phenylethyl)-4-(2-((4-morpholinophenyl)amino)pyrimidin-4-yl)benzamide]	9.8 °C	–	–
Cc1cnc(Nc2ccc(N3CCOCC3)cc2)nc1-c1ccc(C(=O)NCC#N)cc1 [GM1-032, N-(Cyanomethyl)-4-(5-methyl-2-((4-(morpholino)phenyl)amino)pyrimidin-4-yl)benzamide]	8.4 °C	–	–
Cc1cnc(Nc2ccc(C(=O)NC3CCN(C)CC3)c(F)c2)nc1Nc1ccc(Cl)c(NS(=O)(=O)C(C)(C)C)c1 [SG3-179, reference compound]	10.6 °C	–	–
N#CCNC(=O)c1ccc(-c2nc(Nc3ccc(N4CCOCC4)cc3)nc3[nH]ccc23)cc1 [BL4-139]	15.0 °C	< 0.51 nM	–
CN1CCN(c2cc(F)cc(Nc3nccc(-c4ccc(C(=O)N5CCC[C@@H]5C(F)(F)F)cc4)n3)c2)CC1 [BR1-052]	14.1 °C	–	–
N#CCNC(=O)c1ccc(-c2ccnc(Nc3ccc(N4CCOCC4)cc3)n2)cc1 [BL4-106 HCl salt, reference compound]	14.3 °C and 9.9 °C	–	–
CN1CCN(c2cc(F)cc(Nc3nccc(-c4ccc(C(=O)N5CCC[C@H]5C(F)(F)F)cc4)n3)c2)CC1 [BR1-053]	10.5 °C	–	–
N#CCNC(=O)c1ccc(-c2ccnc(Nc3ccc(N4CCOCC4=O)cc3)n2)cc1 [BH1-090, N-(Cyanomethyl)-4-(2-((4-(3-oxomorpholino)phenyl)amino)pyrimidin-4-yl)benzamide]	7.5 °C	–	1.3 °C
CN1CCN(c2cccc(Nc3nccc(-c4ccc(C(=O)N5CCC[C@@H]5C(F)(F)F)cc4)n3)c2)CC1 [BH2-011, (R)-(4-(2-((3-(4-Methylpiperazin-1-yl)phenyl)amino)pyrimidin-4-yl)phenyl) (2-(trifluoromethyl)pyrrolidin-1-yl) methanone]	14.5 °C and 14.4 °C	–	–
CS(=O)(=O)O.Cc1cnc(Nc2ccc(C3CCN(C)CC3)c(F)c2)nc1Nc1ccc(Cl)c(NS(=O)(=O)C(C)(C)C)c1 [MA9-060, reference compound]	11.9 °C and 12.6 °C	–	–
O=C(c1ccc(-c2ccnc(Nc3cccc(N4CCOCC4)c3)n2)cc1)N1CCC[C@H]1C(F)(F)F [BR1-048]	9.3 °C	–	–
N#CCNC(=O)c1ccc(-c2ncnc3[nH]ccc23)cc1 [BL4-136]	5.1 °C	–	1 °C
N#CCNC(=O)c1ccc(-c2nc(Nc3ccc(N4CCOCC4=O)cc3)ncc2F)cc1 [GM1-036BA2, N-(Cyanomethyl)-4-(5-fluoro-2-((4-(3-oxomorpholino)phenyl)amino)pyrimidin-4-yl)benzamide]	8.7 °C	–	1.1 °C
N#CCNC(=O)c1ccc(-c2nc(Nc3ccc(N4CCOCC4)cc3)ncc2Cl)cc1 [GM1-048, 4-(5-Chloro-2-((4-morpholinophenyl)amino)pyrimidin-4-yl)-N-(cyanomethyl)benzamide]	11.0 °C and 13.1 °C	–	6.48 °C
2-Fluoro-N-methyl-4-((4-(4-((2,2,2-trifluoroethyl)carbamoyl)phenyl)pyrimidin-2-yl) amino)benzamide [BH1-106]	9.9 °C	–	0.54 °C
Cc1cnc(Nc2ccc(CN3CCN(C)CC3)cc2)nc1-c1ccc(C(=O)NCC#N)cc1 [BH1-102]	7.2 °C	–	4.68 °C
CN1CCC(c2ccc(Nc3ncc(F)c(-c4ccc(C(=O)NCC#N)cc4)n3)cc2F)CC1 [GM1-064, N-(Cyanomethyl)-4-(5-fluoro-2-((3-fluoro-4-(1-methylpiperidin-4-yl)phenyl)amino)pyrimidin-yl)benzamide]	8.0 °C	–	3.68 °C
CC(C)[C@H](CO)NC(=O)c1ccc(-c2ccnc(Nc3ccc(N4CCOCC4)cc3)n2)cc1 [BH1-063, (R)—N-(1-Hydroxy-3-methylbutan-2-yl)-4-(2-((4-morpholinophenyl)amino)pyrimidin-4-yl)benzamide]	7.9 °C	–	3.6 °C

Compound	DSF (ULK3) ΔTm (° C.) (ULK3)	IC50 (JAK2 [1])	DSF (JAK2) ΔTm (° C.) (JAK2 [2])
CN1CCN(c2ccc(Nc3ncc(F)c(-c4ccc(C(=O)NCC#N)cc4)n3)cc2F)CC1 [BH1-095]	8.8 °C	–	–
N#CCNC(=O)c1ccc(-c2nc(Nc3ccc(N4CCOCC4=O)cc3)ncc2Cl)cc1 [GM1-072, 4-(5-Chloro-2-((4-(3-oxomorpholino)phenyl)amino)pyrimidin-4-yl)-N-(cyanomethyl)benzamide]	11.8 °C	–	–
N#CCNC(=O)c1ccc(-c2nc(Nc3ccc(N4CCOCC4)cc3)ncc2F)cc1 [GM1-034, N-(Cyanomethyl)-4-(5-fluoro-2-((4-morpholinophenyl)amino)pyrimidin-4-yl)benzamide]	10.6 °C	–	–
O=C(c1ccc(-c2ccnc(Nc3cccc(N4CCOCC4)c3)n2)cc1)N1CCC[C@@H]1C(F)(F)F [BR1-047]	13.4 °C	–	–
O=C(NCC(F)(F)F)c1ccc(-c2ccnc(Nc3ccc(N4CCOCC4)cc3N3CCOCC3)n2)cc1 [BR1-054]	1.3 °C	–	–
Cc1cnc(Nc2ccc(N3CCOCC3=O)cc2)nc1-c1ccc(C(=O)NCC#N)cc1 [GM1-030, N-(Cyanomethyl)-4-(5-methyl-2-((4-(3-oxomorpholino)phenyl)amino)pyrimidin-4-yl)benzamide]	8.1 °C	–	5.5 °C
CN1CCN(c2cccc(Nc3nccc(-c4ccc(C(=O)N5CCC[C@H]5C(F)(F)F)cc4)n3)c2)CC1 [BH2-013, (S)-(4-(2-((3-(4-Methylpiperazin-1-yl)phenyl)amino)pyrimidin-4-yl)phenyl) (2-(trifluoromethyl)pyrrolidin-1-yl) methanone]	10.9 °C	–	–
COC[C@H](NC(=O)c1ccc(-c2ccnc(Nc3ccc(N4CCOCC4)cc3)n2)cc1)c1ccccc1 [BR1-038, (R)—N-(2-Methoxy-1-phenylethyl)-4-(2-((4-morpholinophenyl)amino)pyrimidin-4-yl)benzamide]	8.4 °C	–	–
CN1CCN(c2cccc(Nc3nccc(-c4ccc(C(=O)NCC(F)(F)F)cc4)n3)c2)CC1 [BH2-010, 4-(2-((3-(4-Methylpiperazin-1-yl)phenyl)amino)pyrimidin-4-yl)-N-(2,2,2-trifluoroethyl)benzamide]	14.4 °C	–	–
N#CCNC(=O)c1ccc(-c2ccnc(Nc3ccc(N4CCOCC4)cc3)n2)cc1 [Momelotinib (BL4-106), Momelotinib, reference compound]	14.3 °C and 10.6 °C and 13.2 °C	–	–
O=C(NCC(F)(F)F)c1ccc(-c2nc(Nc3ccc(N4CCOCC4)cc3)nc3[nH]ccc23)cc1 [RF1-046, 4-(2-((4-Morpholinophenyl)amino)-7H-pyrrolo[2,3-d]pyrimidin-4-yl)-N-(2,2,2-trifluoro-ethyl)benzamide]	–	0.745 nM	–
N#CC(NC(=O)c1ccc(-c2ccnc(Nc3ccc(N4CCOCC4)cc3)n2)cc1)c1ccccc1 (stereo not drawn) [BL4-153, N-(Cyano (phenyl)methyl)-4-(2-((4-morpholinophenyl)amino)pyrimidin-4-yl)benzamide]	11.6 °C	–	–
O=C(NCC(F)(F)F)c1ccc(-c2ccnc(Nc3ccc(N4CCOCC4)c(F)c3)n2)cc1 [BH1-138, 4-(2-((3-Fluoro-4-morpholinophenyl)amino)pyrimidin-4-yl)-N-(2,2,2-trifluoroethyl)benzamide]	–	–	0.5 °C
CN1CCN(c2cc(F)cc(Nc3nccc(-c4ccc(C(=O)NCC(F)(F)F)cc4)n3)c2)CC1 [BR1-051]	11.1 °C	–	–
COC[C@H](Cc1ccccc1)NC(=O)c1ccc(-c2ccnc(Nc3ccc(N4CCOCC4)cc3)n2)cc1 [BR1-012]	5.8 °C	–	0.1 °C
O=C(N[C@H](CO)Cc1ccccc1)c1ccc(-c2ccnc(Nc3ccc(N4CCOCC4)cc3)n2)cc1 [BR1-034, (S)—N-(1-Hydroxy-3-phenylpropan-2-yl)-4-(2-((4-morpholinophenyl)amino)pyrimidin-4-yl)benzamide]	9.1 °C	–	–
COC(=O)c1ccc(Nc2nccc(-c3ccc(C(=O)NCC(F)(F)F)cc3)n2)cc1F [BH1-104, Methyl 2-fluoro-4-((4-(4-((2,2,2-trifluoroethyl)carbamoyl)phenyl)pyrimidin-2-yl)amino)benzoate]	6.9 °C	–	0.05 °C
COc1cc(N2CCOCC2)ccc1Nc1nccc(-c2ccc(C(=O)NCC(F)(F)F)cc2)n1 [BH1-132, 4-(2-((2-Methoxy-4-morpholinophenyl)amino)pyrimidin-4-yl)-N-(2,2,2-trifluoroethyl)benzamide]	10.0 °C	–	0.1 °C
CN1CCC(c2cnc(Nc3nc(-c4ccc(C(=O)NCC#N)cc4)c4cc[nH]c4n3)cc2F)CC1 [RF1-058, N-(Cyanomethyl)-4-(2-((4-fluoro-5-(1-methylpiperidin-4-yl)pyridin-2-yl)amino)-7H-pyrrolo-[2,3-d]pyrimidin-4-yl)benzamide]	6.8 °C	–	–
